Key:
[1] = logp (HCOOH), chemicophysical data; conditions: HCOOH
[2] = system: Lolium multiflorum; test: Pre-emergence herbicidal effect; type: in vivo; conditions: Dosage 320 g/ha, visual scoring after 3 weeks vs untreated controls, 100% = plants have died
Text: (§1) 1. Pre-Emergence Herbicidal Effect and Crop Plant Compatibility Seeds of monocotyledonous or dicotyledonous weed plants or crop plants are planted in wood-fiber pots in sandy loam and covered with earth. The compounds according to the invention, formulated in the form of wettable powders (WP) or as emulsion concentrates (EC), are then applied as aqueous suspension or emulsion at a water application rate of 600 to 800 l/ha (converted) with the addition of 0.2% of wetting agent to the surface of the covering earth. The dosage of the compounds according to the invention is given in grams per hectare. Following the treatment, the pots are placed in a greenhouse and kept under good growth conditions for the test plants. The visual scoring of the damage on the test plants is carried out after an experiment time of 3 weeks in comparison with untreated controls (herbicidal effect in percent (%): 100% effect=plants have died, 0% effect=as control plants). The following abbreviations are used in the tables below: [table]

[3] = system: Veronica persica; test: Pre-emergence herbicidal effect; type: in vivo; conditions: Dosage 320 g/ha, visual scoring after 3 weeks vs untreated controls, 100% = plants have died
Text: as §1

[4] = system: Stellaria media; test: Pre-emergence herbicidal effect; type: in vivo; conditions: Dosage 320 g/ha, visual scoring after 3 weeks vs untreated controls, 100% = plants have died
Text: as §1

[5] = system: Matricaria inodora; test: Pre-emergence herbicidal effect; type: in vivo; conditions: Dosage 320 g/ha, visual scoring after 3 weeks vs untreated controls, 100% = plants have died
Text: as §1

[6] = system: Amaranthus retroflexus; test: Pre-emergence herbicidal effect; type: in vivo; conditions: Dosage 320 g/ha, visual scoring after 3 weeks vs untreated controls, 100% = plants have died
Text: as §1

[7] = system: Echinochloa crus-galli; test: Pre-emergence herbicidal effect; type: in vivo; conditions: Dosage 320 g/ha, visual scoring after 3 weeks vs untreated controls, 100% = plants have died
Text: as §1

[8] = system: Viola tricolor; test: Pre-emergence herbicidal effect; type: in vivo; conditions: Dosage 320 g/ha, visual scoring after 3 weeks vs untreated controls, 100% = plants have died
Text: as §1

Compound	logp (HCOOH) [1]	further results
Cc1ccc2c(c1)C(Nc1ncc(I)c(N)n1)C(C)C2 (mixture of isomers) [Example 1.87]	wax-like; logp (HCOOH): 1.37; 1H-NMR (CDCl3, 400 MHZ, δ in ppm): 1.25 (d, 3H, CH3);	–
Cc1nc(NC2CCOc3ccc(C(C)C)cc32)nc(N)c1C#N (racemic) [Example 1.27]	solid, m.p.: 158.8° C.; logp (HCOOH): 2.51; 1H-NMR (CDCl3, 400 MHZ, δ in ppm): 1.15	–
N#Cc1c(N)nc(NC2CCCc3ccccc32)nc1C(F)(F)F (racemic) [Example 1.29]	solid; m.p.: 205.8° C.; logp (HCOOH): 3.43; 1H-NMR (CDCl3, 400 MHZ, δ in ppm): 1.85	–
COC(=O)c1cc(N)nc(NC2CCCc3ccccc32)n1 (racemic) [Example 1.212]	wax-like; logp (HCOOH): 2.54; 1H-NMR (CDCl3, 400 MHZ, δ in ppm): 1.80-2.10 (m,	–
N#Cc1cnc(NC2CCc3cc(Cl)ccc32)nc1N (racemic) [Example 1.216]	wax-like; logp (HCOOH): 2.18; 1H-NMR (CDCl3, 400 MHZ, δ in ppm): 1.80 (m, 1H, 1H	–
Cc1nc(NC2CCc3cc(Cl)ccc32)nc(N)c1C#N (racemic) [Example 1.217]	wax-like; logp (HCOOH): 2.21; 1H-NMR (CDCl3, 400 MHZ, δ in ppm): 1.80 (m, 1H, 1H	–
Cc1nc(NC2(C)CCCc3ccccc32)nc(N)c1C#N (racemic) [Example 1.224]	wax-like; logp (HCOOH): 3.37; 1H-NMR (CDCl3, 400 MHZ, δ in ppm): 1.80 (m, 1H, 1H	–
CCc1ccc2c(c1)C(Nc1ncc(C(F)(F)F)c(N)n1)CCO2 (racemic) [Example 1.238]	wax-like; logp (HCOOH): 2.02; 1H-NMR (CDCl3, 400 MHZ, δ in ppm): 1.15 (t, 3H, CH3);	–
COc1ccc2c(c1)C(Nc1ncc(C(F)(F)F)c(N)n1)CCO2 (racemic) [Example 1.239]	wax-like; logp (HCOOH): 1.46	–
CC1(C)CC(Nc2ncc(C(F)(F)F)c(N)n2)c2cc(F)c(Cl)cc2O1 (racemic) [Example 1.241]	wax-like; logp (HCOOH): 2.83; 1H-NMR (CDCl3, 400 MHZ, δ in ppm): 1.30 (s, 3H, CH3);	–
CC1Cc2ccc(F)cc2C1Nc1ncc(C(F)(F)F)c(N)n1 (racemic) [Example 1.243]	wax-like; logp (HCOOH): 1.93; 1H-NMR (CDCl3, 400 MHZ, δ in ppm): 0.95 (d, 3H, CH3);	–
Cc1cccc2c1CCC2Nc1ncc(C(F)(F)F)c(N)n1 (racemic) [Example 1.254]	wax-like; logp (HCOOH): 1.75; 1H-NMR (CDCl3, 400 MHZ, δ in ppm): 2.10 (s, 3H,	–
Cc1cc(C)c2c(c1)C(Nc1ncc(C#N)c(N)n1)CCC2 (racemic) [Example 1.271]	wax-like; logp (HCOOH): 2.60; 1H-NMR (CDCl3, 400 MHZ, δ in ppm): 1.85 (m, 3H, 3H	–
Cc1ccc2c(c1)[C@H](Nc1nccc(N)n1)[C@@H](C)C2 [Example 1.38]	wax-like; logp (HCOOH): 1.25; 1H-NMR (CDCl3, 400 MHZ, δ in ppm): 1.25 (m, 3H, CH3);	–
C[Si](C)(C)C#Cc1cnc(N[C@@H]2CCCc3ccccc32)nc1N [Example 1.39]	wax-like; logp (HCOOH): 1.86; 1H-NMR (CDCl3, 400 MHZ, δ in ppm): 0.25 (s, 9H, CH3);	–
Cc1ccc2c(c1)[C@H](Nc1nc(C)cc(N)n1)[C@@H](C)C2 [Example 1.41]	wax-like; logp (HCOOH): 1.12; 1H-NMR (DMSO, 400 MHZ, δ in ppm): 1.15 (d, 3H, CH3);	–
Cc1ccc2c(c1)[C@H](Nc1ncc(C)c(N)n1)[C@@H](C)C2 [Example 1.51]	–	Pre-emergence herbicidal effect LOLMU [2]: 100%; Pre-emergence herbicidal effect VERPE [3]: 100%; Pre-emergence herbicidal effect STEME [4]: 100%; Pre-emergence herbicidal effect MATIN [5]: 100%
Cc1ccc2c(c1)[C@H](Nc1nc(N)c(C#N)c(C(C)C)n1)[C@@H](C)C2 [Example 1.64]	wax-like; logp (HCOOH): 3.90; 1H-NMR (CDCl3, 400 MHZ, δ in ppm): 1.25 (m, 9H,	–
CC(C)c1nc(N[C@@H]2CCCc3ccccc32)nc(N)c1C#N [Example 1.66]	wax-like; logp (HCOOH): 3.34; 1H-NMR (CDCl3, 400 MHZ, δ in ppm): 1.25 (m, 6H,	–
Nc1cc(Cl)nc(N[C@@H]2CCCc3ccccc32)n1 [Example 1.76]	–	Pre-emergence herbicidal effect VERPE [3]: 100%; Pre-emergence herbicidal effect STEME [4]: 100%; Pre-emergence herbicidal effect AMARE [6]: 90%; Pre-emergence herbicidal effect MATIN [5]: 100%
Cc1ccc2c(c1)[C@H](Nc1nc(N)c(C#N)c(-c3ccccc3C)n1)[C@@H](C)C2 [Example 1.77]	solid; logp (HCOOH): 3.83; 1H-NMR (CDCl3, 400 MHZ, δ in ppm): 1.25 (m, 3H, CH3);	–
Cc1ccccc1-c1nc(N[C@@H]2CCCc3ccccc32)nc(N)c1C#N [Example 1.78]	solid; logp (HCOOH): 3.41; 1H-NMR (CDCl3, 400 MHZ, δ in ppm): 1.85-2.05 (br, 4H,	–

Compound	logp (HCOOH) [1]	further results
Cc1ccc2c(c1)[C@H](Nc1nc(N)cc(-c3ccccc3)n1)[C@@H](C)C2 [Example 1.83]	wax-like; logp (HCOOH): 1.71; 1H-NMR (CDCl3, 400 MHZ, δ in ppm): 1.25 (m, 3H, CH3);	–
CC1(c2nc(N[C@@H]3CCCc4ccccc43)nc(N)c2C#N)CC1 [Example 1.84]	wax-like; logp (HCOOH): 2.63; 1H-NMR (CDCl3, 400 MHZ, δ in ppm): 0.75 (m, 2H, CH2);	–
Cc1ccc(C2(c3nc(N[C@@H]4CCCc5ccccc54)nc(N)c3C#N)CC2)cc1 [Example 1.85]	wax-like; logp (HCOOH): 4.02; 1H-NMR (CDCl3, 400 MHZ, δ in ppm): 1.70-2.10 (br,	–
N#Cc1c(N)nc(N[C@@H]2CCCc3ccccc32)nc1C1(c2ccc(Cl)cc2Cl)CC1 [Example 1.86]	wax-like; logp (HCOOH): 5.15; 1H-NMR (CDCl3, 400 MHZ, δ in ppm): 1.25 (br, 2H,	–
Cc1ccc2c(c1)[C@H](Nc1nc(N)cc(N(C)C)n1)[C@@H](C)C2 [Example 1.91]	wax-like; logp (HCOOH): 1.66; 1H-NMR (CDCl3, 400 MHZ, δ in ppm): 1.25 (d, 3H, CH3);	–
Cc1ccc2c(c1)[C@H](Nc1nc(N)c(C#N)c(C3(C)CC3)n1)[C@@H](C)C2 [Example 1.93]	wax-like; logp (HCOOH): 3.31; 1H-NMR (CDCl3, 400 MHZ, δ in ppm): 0.75 (m, 2H, CH2);	–
Cc1ccc2c(c1)[C@H](Nc1ncc(C(F)(F)F)c(N)n1)[C@@H](C)C2 [Example 1.107]	wax-like, logp (HCOOH): 2.11; 1H-NMR (CDCl3, 400 MHZ, δ in ppm): 1.25 (d, 3H, CH3);	–
C#Cc1cnc(N[C@@H]2CCCc3ccccc32)nc1N [Example 1.116]	wax-like; logp (HCOOH): 1.09; 1H-NMR (CDCl3, 400 MHZ, δ in ppm): 1.80 (m, 3H, 3H	–
COC(=O)c1cc(N)nc(N[C@H]2c3cc(C)ccc3C[C@@H]2C)n1 [Example 1.118]	wax-like; logp (HCOOH): 2.96; 1H-NMR (CDCl3, 400 MHZ, δ in ppm): 1.30 (d, 3H, CH3);	–
Cc1nc(N[C@@H]2CCc3ccccc32)nc(N)c1[N+](=O)[O-] [Example 1.123]	–	Pre-emergence herbicidal effect VERPE [3]: 100%; Pre-emergence herbicidal effect STEME [4]: 100%; Pre-emergence herbicidal effect ECHCG [7]: 80%; Pre-emergence herbicidal effect AMARE [6]: 100%; Pre-emergence herbicidal effect MATIN [5]: 100%; Pre-emergence herbicidal effect VIOTR [8]: 100%
CC(=O)c1cnc(N[C@H]2c3cc(C)ccc3C[C@@H]2C)nc1N [Example 1.184]	wax-like; logp (HCOOH): 1.58; 1H-NMR (CDCl3, 400 MHZ, δ in ppm): 1.30 (d, 3H, CH3);	–
Cc1ccc2c(c1)[C@H](Nc1nc(N)cc(C(F)(F)F)n1)[C@@H](C)C2 [Example 1.214]	wax-like; logp (HCOOH): 1.59; 1H-NMR (CDCl3, 400 MHZ, δ in ppm): 1.30 (d, 3H, CH3);	–
COc1cccc(C#Cc2cnc(N[C@H]3c4cc(C)ccc4C[C@@H]3C)nc2N)c1 [Example 1.221]	wax-like; logp (HCOOH): 1.98; 1H-NMR (CDCl3, 400 MHZ, δ in ppm): 1.25 (d, 3H, CH3);	–
Cc1ccc2c(c1)[C@H](Nc1ncc(C#CCO)c(N)n1)[C@@H](C)C2 [Example 1.222]	wax-like; logp (HCOOH): 1.04; 1H-NMR (CDCl3, 400 MHZ, δ in ppm): 1.25 (d, 3H, CH3);	–
Nc1nc(N[C@@H]2CCc3ccccc32)ncc1C(F)(F)F [Example 1.237]	wax-like; logp (HCOOH): 1.50; 1H-NMR (CDCl3, 400 MHZ, δ in ppm): 1.80 (m, 1H, 1H	–
Cc1ccc2c(c1)[C@H](Nc1ncc(C#Cc3cccc(C(F)(F)F)c3)c(N)n1)[C@@H](C)C2 [Example 1.247]	wax-like; logp (HCOOH): 2.60; 1H-NMR (CDCl3, 400 MHZ, δ in ppm): 1.25 (d, 3H, CH3);	–
Cc1ccc2c(c1)[C@H](Nc1ncc(C#Cc3ccc(F)c(Cl)c3)c(N)n1)[C@@H](C)C2 [Example 1.248]	wax-like; logp (HCOOH): 2.71; 1H-NMR (CDCl3, 400 MHZ, δ in ppm): 1.25 (d, 3H, CH3);	–
Cc1ccc2c(c1)[C@H](Nc1ncc(C#CCC(C)C)c(N)n1)[C@@H](C)C2 [Example 1.249]	wax-like; logp (HCOOH): 1.73; 1H-NMR (CDCl3, 400 MHZ, δ in ppm): 1.00 (d, 6H,	–
CCC(O)C#Cc1cnc(N[C@H]2c3cc(C)ccc3C[C@@H]2C)nc1N (stereo partly drawn) [Example 1.251]	wax-like; logp (HCOOH): 1.48; 1H-NMR (CDCl3, 400 MHZ, δ in ppm): 1.00 (t, 3H, CH3);	–
CC(=O)OCC#Cc1cnc(N[C@H]2c3cc(C)ccc3C[C@@H]2C)nc1N [Example 1.252]	wax-like; logp (HCOOH): 1.59; 1H-NMR (CDCl3, 400 MHZ, δ in ppm): 1.25 (d, 3H, CH3);	–
Cc1nc(N[C@@H]2CCCc3ccccc32)nc(N)c1C(=O)OC1CCCCC1 [Example 1.255]	wax-like; logp (HCOOH): 2.03; 1H-NMR (CDCl3, 400 MHZ, δ in ppm): 2.10-2.65 (m,	–
